This is an account of results in patent publication US10947252B2, “Inhibitors of KEAP1-Nrf2 protein-protein interaction” (Janssen Pharmaceutica NV, priority 2018, dated 2021).

The test system of test [1] is Glo-Response ARE-luc2P HEK293 cell line. The test is described as follows: ARE luciferase reporter cell-based assay.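 Also: luciferase signal tracks Nrf2 activation of the ARE once compounds disrupt KEAP1-Nrf2 binding, read with One-Glo reagent, DMSO serving as low control.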 Particulars: Homo sapiens, HEK293, 24 h, average of results obtained. A general note: A reporter such as luciferase makes a cellular process visible.
Test [2] concerns the target Kelch domain of human KEAP1 (321-624 aa) (Homo sapiens (Human), UniProt Q14145). The test is described as follows: KEAP1 KELCH ThermoFluor binding assay.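 Also: Ligand-induced melting temperature shift of E. coli-expressed KEAP1 Kelch protein, Kd estimated from concentration-response curves of ΔTm.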 Particulars: KEAP Kelch […], 1,8-ANS, pH 7.0, average of results obtained, read-out: Tf Kd.

SMILES strings stand for the structures. Where only a bound is given, the exact number is not on record here.

For orientation: EC50 means the concentration at which the effect is half-maximal. A higher EC50 goes with lower potency in that assay. The term Kd denotes the free concentration of one partner at which half of the binding sites on the other are occupied at equilibrium, for simple one-to-one binding.

Sequence of Kelch domain of human KEAP1 (321-624 aa) (Q14145 321-624): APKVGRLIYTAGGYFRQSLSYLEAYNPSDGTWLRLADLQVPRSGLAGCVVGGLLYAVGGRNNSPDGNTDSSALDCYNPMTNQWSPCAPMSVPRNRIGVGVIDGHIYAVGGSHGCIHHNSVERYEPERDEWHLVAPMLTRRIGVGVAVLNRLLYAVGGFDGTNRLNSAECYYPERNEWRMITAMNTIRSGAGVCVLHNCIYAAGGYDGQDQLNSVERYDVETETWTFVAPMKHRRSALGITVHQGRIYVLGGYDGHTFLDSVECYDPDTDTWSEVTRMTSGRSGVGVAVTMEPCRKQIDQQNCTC

In turn, `Cc1ccc([C@H](CC(=O)O)c2ccn3c(C(F)(F)F)nnc3c2C)cc1CN1CC2(CC2)Oc2nc(O)ccc2S1(=O)=O` (single isomer, unassigned) [Example 103, (*S)-3-(3-((7′-Hydroxy-1′,1′-dioxidospiro[cyclopropane-1,4′-pyrido[2,3,-b][1,4,5]oxathiazepin]-2′(3′H)-yl)methyl)-4-methylphenyl)-3-(8-methyl-3-(trifluoromethyl)-[1,2,4]triazolo[4,3-a]pyridine-7-yl)propanoic Acid] displayed an EC50 in test [1] of 9130 nM. In addition, the Kd in test [2] worked out at 1.6 nM.

`Cc1cnc2c(c1)S(=O)(=O)N(Cc1cc([C@H](CC(=O)O)c3ccn4c(C(F)(F)F)nnc4c3C)ccc1C#N)CC1(CC1)O2` (single isomer, unassigned) [Example 105, (*S)-3-(4-Cyano-3-((8′-methyl-1′,1′-dioxidospiro[cyclopropane-1,4′-pyrido[2,3-b][1,4,5]oxathiazepin]-2′(3′H)-yl)methyl)phenyl)-3-(8-methyl-3-(trifluoromethyl)-[1,2,4]trizolo[4,3-a]pyridine-7-yl)propanoic Acid]: the EC50 in test [1] is 14400 nM. Also, the Kd in test [2] amounted to 16 nM.

For `Cc1cnc2c(c1)S(=O)(=O)N(Cc1cc([C@@H](CC(=O)O)c3ccn4c(C(F)(F)F)nnc4c3C)ccc1C#N)CC1(CC1)O2` (single isomer, unassigned) [Example 106, (*R)-3-(4-Cyano-3-((8′-methyl-1′,1′-dioxidospiro[cyclopropane-1,4′-pyrido[2,3-b][1,4,5]oxathiazepin]-2′(3′H)-yl)methyl)phenyl)-3-(8-methyl-3-(trifluoromethyl)-[1,2,4]trizolo[4,3-a]pyridine-7-yl)propanoic Acid], the EC50 in test [1] was greater than 20000 nM. Also, the equilibrium dissociation constant (Kd) in test [2] is 21 nM.

Turning to `COCCCNc1ccc2c(n1)OC1(CC1)CN(Cc1cc([C@H](CC(=O)O)c3ccn4c(C(F)(F)F)nnc4c3C)ccc1C)S2(=O)=O` (single isomer, unassigned) [Example 107, (*S)-3-(3-((7′-((3-Methoxypropyl)amino)-1′,1′-dioxidospiro[cyclopropane-1,4′-pyrido[2,3-b][1,4,5]oxathiazepin]-2′(3′H)-yl)methyl)-4-methylphenyl)-3-(8-methyl-3-(trifluoromethyl)-[1,2,4]triazolo[4,3-a]pyridine-7-yl)propanoic Acid], a half-maximal response in test [1] (EC50) required 259 nM. The Kd in test [2] is less than 1 nM.

`Cc1ccc([C@H](CC(=O)O)c2ccn3c(C(F)(F)F)nnc3c2C)cc1CN1CC2(CC2)Oc2nc(N(C)CCCO)ccc2S1(=O)=O` (single isomer, unassigned) [Example 108, (*S)-3-(-3-((7′-((3-Hydroxypropyl)(methyl)amino)-1′,1′-dioxidospiro[cyclopropane-1,4′-pyrido[2,3-b][1,4,5]oxathiazepin]-2′(3′H)-yl)methyl)-4-methylphenyl)-3-(8-methyl-3-(trifluoromethyl)-[1,2,4[triazolo[4,3-a]pyridine-7-yl)propanoic Acid] yielded a 50% effective concentration (EC50) in test [1] of 406 nM. Besides, the Kd in test [2] was less than 1 nM.

Regarding `Cc1ccc([C@H](CC(=O)O)c2ccn3c(C(F)(F)F)nnc3c2C)cc1CN1CC2(CC2)Oc2nc(NCCN3CCOCC3)ccc2S1(=O)=O` (single isomer, unassigned) [Example 111, (*S)-3-(4-Methyl-((7′-((2-morpholinoethyl)amino)-1′,1′-dioxidospiro[cyclopropane-1,4′-pyrido[2,3-b][1,4,5]oxathiazepin]-2′(3′H)-yl)methyl)-4-methylphenyl)-3-(8-methyl-3-(trifluoromethyl)-[1,2,4 [triazolo[4,3-a]pyridine-7-yl)propanoic Acid], the midpoint of the response in test [1], the EC50, lay at 588 nM. In test [2], the Kd is less than 1 nM.

The molecule `Cc1ccc([C@H](CC(=O)O)c2ccn3c(C(F)(F)F)nnc3c2C)cc1CN1CC2(CC2)Oc2nc(NCCN3CCCCC3)ccc2S1(=O)=O` (single isomer, unassigned) [Example 112, (*S)-3-(3-((1′,1′-Dioxido-7′-((2-(piperidin-1-yl)ethyl)amino)spiro[cyclopropane-1,4′-pyrido[2,3-b][1,4,5]oxathiazepin]-2′(3′H)-yl)methyl)-4-methylphenyl)-3-(8-methyl-3-(trifluoromethyl)-[1,2,4[triazolo[4,3-a]pyridine-7-yl)propanoic Acid] had an EC50 in test [1] of 1310 nM. Moreover, the Kd in test [2] was less than 1 nM.

`Cc1ccc([C@@H](c2ccn3c(C(F)(F)F)nnc3c2C)C(C)(C)C(=O)O)cc1CN1CC2(CCOCC2)Oc2nc(N[C@H](C)CCO)ccc2S1(=O)=O` (single isomer, unassigned) [Example 119, (*S)-3-(3-((7′-(((R)-4-Hydroxybutan-2-yl)amino)-1′,1′-dioxido-2,3,5,6-tetrahydrospiro[pyran-4,4′-pyrido[2,3-b][1,4,5]oxathiazepin]-2′(3′H)-yl)methyl)-4-methylphenyl)-2,2-dimethyl-3-(8-methyl-3-(trifluoromethyl)-[1,2,4[triazolo[4,3-a]pyridine-7-yl)propanoic Acid] displayed an EC50 in test [1] of 166 nM. Further, the equilibrium dissociation constant (Kd) in test [2] is less than 1 nM.

In test [1], `Cc1ccc([C@H](c2ccn3c(C(F)(F)F)nnc3c2C)C(C)(C)C(=O)O)cc1CN1CC2(CCOCC2)Oc2nc(N[C@H](C)CCO)ccc2S1(=O)=O` (single isomer, unassigned) [Example 120, (*R)-3-(3-((7′-(((R)-4-Hydroxybutan-2-yl)amino)-1′,1′-dioxido-2,3,5,6-tetrahydrospiro[pyran-4,4′-pyrido[2,3-b][1,4,5]oxathiazepin]-2′(3′H)-yl)methyl)-4-methylphenyl)-2,2-dimethyl-3-(8-methyl-3-(trifluoromethyl)-[1,2,4[triazolo[4,3-a]pyridine-7-yl)propanoic Acid] came in with a concentration for a half-maximal effect (EC50) of 19400 nM. Also, in test [2], the Kd is 8560 nM.

As for `Cc1ccc([C@@H](c2ccn3c(C(F)(F)F)nnc3c2C)C(C)(C)C(=O)O)cc1CN1CC2(CCOCC2)Oc2nc(N[C@@H](C)CCO)ccc2S1(=O)=O` (single isomer, unassigned) [Example 121, (*S)-3-(3-((7′-(((S)-4-Hydroxybutan-2-yl)amino)-1′,1′-dioxido-2,3,5,6-tetrahydrospiro[pyran-4,4′-pyrido[2,3-b][1,4,5]oxathiazepin]-2′(3′H)-yl)methyl)-4-methylphenyl)-2,2-dimethyl-3-(8-methyl-3-(trifluoromethyl)-[1,2,4[triazolo[4,3-a]pyridine-7-yl)propanoic Acid], the EC50 in test [1] was 157 nM. Further, the Kd in test [2] is less than 1 nM.

`Cc1ccc([C@H](c2ccn3c(C(F)(F)F)nnc3c2C)C(C)(C)C(=O)O)cc1CN1CC2(CCOCC2)Oc2nc(N[C@@H](C)CCO)ccc2S1(=O)=O` (single isomer, unassigned) [Example 122, (*R)-3-(3-((7′-(((S)-4-Hydroxybutan-2-yl)amino)-1′,1′-dioxido-2,3,5,6-tetrahydrospiro[pyran-4,4′-pyrido[2,3-b][1,4,5]oxathiazepin]-2′(3′H)-yl)methyl)-4-methylphenyl)-2,2-dimethyl-3-(8-methyl-3-(trifluoromethyl)-[1,2,4[triazolo[4,3-a]pyridine-7-yl)propanoic Acid] had a 50% effective concentration (EC50) in test [1] of 13000 nM. Also, the Kd in test [2] is 8930 nM.

`Cc1ccc([C@H](c2ccn3c(C(F)(F)F)nnc3c2C)C(C)(C)C(=O)O)cc1CN1CC2(CCOCC2)Oc2nc(N[C@@H](C)CCO)c(C)cc2S1(=O)=O` (single isomer, unassigned) [Example 123, (*R)-3-(3-((7′-(((S)-4-Hydroxybutan-2-yl)amino)-8′-methyl-1′,1′-dioxido-2,3,5,6-tetrahydrospiro[pyran-4,4′-pyrido[2,3-b][1,4,5]oxathiazepin]-2′(3′H)-yl)methyl)-4-methylphenyl)-2,2-dimethyl-3-(8-methyl-3-(trifluoromethyl)-[1,2,4[triazolo[4,3-a]pyridine-7-yl)propanoic Acid] showed an EC50 in test [1] of 28.9 nM. In addition, the Kd in test [2] is less than 1 nM.

The molecule `Cc1ccc([C@H](c2ccn3c(C(F)(F)F)nnc3c2C)C(C)(C)C(=O)O)cc1CN1CC2(CCOCC2)Oc2nc(N[C@H](C)C(C)(C)O)c(C)cc2S1(=O)=O` (single isomer, unassigned) [Example 124, (*R)-3-(3-((7′-(((R)-3-Hydroxy-3-methylbutan-2-yl)amino)-8′-methyl-1′,1′-dioxido-2,3,5,6-tetrahydrospiro[pyran-4,4′-pyrido[2,3-b][1,4,5]oxathiazepin]-2′(3′H)-yl)methyl)-4-methylphenyl)-2,2-dimethyl-3-(8-methyl-3-(trifluoromethyl)-[1,2,4]triazolo[4,3-a]pyridin-7-yl)propanoic Acid] came in with an EC50 in test [1] of 28.8 nM. For the same molecule, the Kd in test [2] is less than 1 nM.

For `Cc1ccc([C@@H](c2ccn3c(C(F)(F)F)nnc3c2C)C(C)(C)C(=O)O)cc1CN1CC2(CCOCC2)Oc2nc(OCCN3CCCCC3)c(C)cc2S1(=O)=O` (single isomer, unassigned) [Example 126, 2,2-Dimethyl-3-(4-methyl-3-((8′-methyl-1′,1′-dioxido3-(3-((7′-(((*S)-4-hydroxybutan-2-yl)amino)-8′-methyl-1′,1′-dioxido-7′-(2-(piperidin-1-yl)ethoxy)-2,3,5,6-tetrahydrospiro[pyran-4,4′-pyrido[2,3-b][1,4,5]oxathiazepin]-2′(3′H)-yl)methyl)phenyl)-3-(8-methyl-3-(trifluoromethyl)-[1,2,4]triazolo[4,3-a]pyridine-7-yl)propanoic Acid], in test [1], the EC50 was found to be 6 nM. For the same molecule, in test [2], the Kd was less than 1 nM.

`Cc1ccc([C@H](c2ccn3c(C(F)(F)F)nnc3c2C)C(C)(C)C(=O)O)cc1CN1CC2(CCOCC2)Oc2nc(CCC(=O)NCCO)ccc2S1(=O)=O` (single isomer, unassigned) [Example 128, (*R)-3-(3-((7′-(3-((2-Hydroxyethyl)amino)-3-oxopropyl)-1′,1′-dioxido-2,3,5,6-tetrahydrospiro[pyran-4,4′-pyrido[2,3-b][1,4,5]oxathiazepin]-2′(3′H)-yl)methyl)-4-methylphenyl)-2,2-dimethyl-3-(8-methyl-3-(trifluoromethyl)-[1,2,4]triazolo[4,3-a]pyridine-7-yl)propanoic Acid] registered an EC50 in test [1] of 308 nM. The Kd in test [2] was less than 1 nM.
